The target in data set [1] is T1, wild type KDM4A (Homo sapiens, UniProt O75164).
T1 construct: human KDM4A-jmjC domain (catalytic domain of KDM4A); 6xHis (N); host or cells: E. coli BL21 (DE3)
T1 sequence (O75164 142-308 limits assumed): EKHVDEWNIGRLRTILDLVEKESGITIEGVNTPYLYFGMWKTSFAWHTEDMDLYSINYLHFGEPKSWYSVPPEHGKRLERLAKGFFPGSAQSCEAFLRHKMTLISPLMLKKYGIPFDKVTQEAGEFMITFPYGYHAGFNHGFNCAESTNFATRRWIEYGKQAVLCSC
Briefly: Coupled fluorescence (FDH/NADH) assay, kinetic parameters with 2OG. The settings on record: H3K9me3 demethylation, saturating peptide, 2OG as cofactor. It is filed as biochemical.

Another data set deals with T2, KDM4A-F185A (Homo sapiens, UniProt O75164, F185A).
T2 construct: human KDM4A-jmjC domain (catalytic domain of KDM4A); 6xHis (N); host or cells: E. coli BL21 (DE3)
T2 sequence (O75164 142-308 F185A limits assumed): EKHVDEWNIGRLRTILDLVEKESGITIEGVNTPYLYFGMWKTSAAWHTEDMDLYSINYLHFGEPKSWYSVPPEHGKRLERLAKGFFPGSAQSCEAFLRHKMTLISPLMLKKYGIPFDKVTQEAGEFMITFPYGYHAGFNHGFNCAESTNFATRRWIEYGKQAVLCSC
Briefly: MALDI-MS end-point demethylase assay on H3K9me3 peptide. It is filed as biochemical. The text has this:
To develop an appropriate inhibitor, we selected N-oxalyl glycine (NOG, 2) scaffold because of its structural similarity with 2OG and the ability to inhibit 2OG-utilizing enzymes including KDMs (Figure 1C).[29]−[31] Substituting −CH2– at C3 of 2OG with −NH– in NOG prevents its oxidative decarboxylation by KDMs, making the inhibitor cofactor-competitive. […] We synthesized a panel of eight NOG analogues (3–10), derived from L-amino acids, carrying varied steric substituents at C4, with the reasoning that a bulky substituent at C4 would selectively fit into the expanded pocket of F185A over wild type KDM4A (Figures 2B and S1–S6, Schemes S1 and S2). The inhibitory effect of each compound was determined based on the extent of enzyme-catalyzed demethylation of a canonical peptide substrate corresponding to the N-terminus of histone 3 carrying trimethylated lysine at position 9 (H3K9me3). […] Such orthogonal inhibition of the engineered demethylase constitutes a powerful chemical probe to study the functions of a specific member of an enzyme family without issues of off-target activity. […]
(§1) assay (Biorad) kit with BSA concentrations as a standard. […]
8. Demethylase activity of the wild type and mutant KDM4 proteins on peptide substrate To monitor enzymatic activity, a demethylase activity assay was optimized and then observed through MALDI-TOF.7 Each histone demethylase assay sample included either wild type or mutant enzyme (10µM KDM4A, 7.5µM KDM4C, 10µM KDM4D, or 1µM KDM4E), 10 µM peptide, 200 µM 2OG, 50 mM Tris pH 8, […], 0-200µM NOG analogue, and 2 mM L-ascorbic acid with a total assay volume of 10 µL. Fe(II) supplement and L-ascorbic acid […]
Lastly, the 2OG and peptide were […]
positive mode and analyzed on Bruker FlexAnalysis software. The percent demethylated peptide […]
(§2) the multiple demethylation events on the peptide. […]
varying concentrations (0-10 µM). […] The fluorescence intensity was measured with excitation = 340 nm and emission = 490 nm on a TECAN Infinite M1000Pro. […]
The set up and analysis for IC50 of L-Leu NOG against KDM4A F185A enzyme was similar to that described in the coupled fluorescence assay section, but adjusted to function as an end point assay. […]
and varying concentration of compounds (NOGs 6, 9 and 10) and a substrate cocktail (200 µM 2OG and 60 µM H3K9me3 peptide). Different concentrations of NOG 6 were measured at one time point ranging for 1-5 hours. For 9 and 10, the same set-up remained, but enzymatic activity was measured via MALDI-TOF analysis, and relative activity and inhibition was calculated for different NOG concentrations as described above. […]
and analyzed on Bruker FlexAnalysis software. The percent demethylated peptide was calculated by first multiplying the K27me1 peak by 2 and the K27me0 peak by 3 to account for the multiple

Data set [2] addresses T1, wild type KDM4A. The data set is described as above. It is filed as biochemical. The settings on record: H3K9me3 peptide, 200 µM 2OG, fixed concentration of NOG analogue.
Source text: To develop an appropriate inhibitor, we selected N-oxalyl glycine (NOG, 2) scaffold because of its structural similarity with 2OG and the ability to inhibit 2OG-utilizing enzymes including KDMs (Figure 1C).[29]−[31] Substituting −CH2– at C3 of 2OG with −NH– in NOG prevents its oxidative decarboxylation by KDMs, making the inhibitor cofactor-competitive. […] We synthesized a panel of eight NOG analogues (3–10), derived from L-amino acids, carrying varied steric substituents at C4, with the reasoning that a bulky substituent at C4 would selectively fit into the expanded pocket of F185A over wild type KDM4A (Figures 2B and S1–S6, Schemes S1 and S2). The inhibitory effect of each compound was determined based on the extent of enzyme-catalyzed demethylation of a canonical peptide substrate corresponding to the N-terminus of histone 3 carrying trimethylated lysine at position 9 (H3K9me3). […] Such orthogonal inhibition of the engineered demethylase constitutes a powerful chemical probe to study the functions of a specific member of an enzyme family without issues of off-target activity.
as §1
8. […]
2 mM L-ascorbic acid with a total assay volume of 10 µL. Fe(II) supplement and L-ascorbic acid
Lastly, the 2OG and peptide were
positive mode and analyzed on Bruker FlexAnalysis software. The percent demethylated peptide
as §2

Substrate in data set [3]: O=C(O)CCC(=O)C(=O)O
Put plainly: purified protein, by the assay type. The settings on record: other: saturating H3K9me3 peptide; pH 8.0; 37.0 °C.

With `O=C(O)CCC(=O)C(=O)O` [compound 1, 2-oxoglutarate], the kcat at wild type KDM4A [1] (listed as 2OG) is 0.26 ± 0.01 min^–1; on wild type KDM4A [1] (listed as 2OG 1), 0.2562±0.0072 min^–1.
Take `O=C(O)CNC(=O)C(=O)O` [compound 2, N-oxalyl glycine, reference compound]: at KDM4A-F185A (H3K9me3 peptide, 200 µM 2OG, fixed concentration of NOG analogue), the “inhibition of F185A mutant demethylase activity (MALDI-MS)” value is given as “weakly inhibited”. The “inhibition of wild type KDM4A demethylase activity (MALDI-MS)” value on wild type KDM4A [2] is on record as “weakly inhibited”.
The term IC50 denotes the point on the concentration scale where inhibition reaches its midpoint. Low values mean inhibition by little substance, high ones a need for much substance. Molecule `O=C(O)C(=O)N[C@@H](Cc1ccccc1)C(=O)O` [compound 9, phenylalanine NOG] came in with an IC50 on KDM4A-F185A of 28.7 ± 1.3 µM.
Regarding `O=C(O)C(=O)N[C@@H](CC1CCCCC1)C(=O)O` [compound 10, cyclohexyl NOG], on KDM4A-F185A, the half-inhibitory concentration (IC50) was 4.7 ± 1.7 µM.

B1: wild type KDM4A (Homo sapiens) (protein)
chain: EKHVDEWNIGRLRTILDLVEKESGITIEGVNTPYLYFGMWKTSFAWHTEDMDLYSINYLHFGEPKSWYSVPPEHGKRLERLAKGFFPGSAQSCEAFLRHKMTLISPLMLKKYGIPFDKVTQEAGEFMITFPYGYHAGFNHGFNCAESTNFATRRWIEYGKQAVLCSC
A word on the Km: it is the concentration of substrate that gives half-maximal velocity. With B1, the Km in data set [3] was 7.52 ± 1.2 µM.

B2: KDM4A-F185A (Homo sapiens; F185A) (protein)
chain: EKHVDEWNIGRLRTILDLVEKESGITIEGVNTPYLYFGMWKTSAAWHTEDMDLYSINYLHFGEPKSWYSVPPEHGKRLERLAKGFFPGSAQSCEAFLRHKMTLISPLMLKKYGIPFDKVTQEAGEFMITFPYGYHAGFNHGFNCAESTNFATRRWIEYGKQAVLCSC
For B2, the Michaelis-Menten constant (Km) in data set [3] is 52 ± 11 µM.

These data come from article PMC11783601, “Analogue-Sensitive Inhibition of Histone Demethylases Uncovers Member-Specific Function in Ribosomal Protein Synthesis” (Journal of the American Chemical Society, 2025).
